The results in this text go back to PubChem BioAssay (NCI).

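96-well plates; 48 h exposure; 5 concentrations. Endpoints by linear interpolation between flanking doses. Not reached: highest tested concentration assigned. TGI is the concentration that stops growth completely.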

Common to all, as to assay: NCI tumour cell line growth inhibition, 48 h
In test [1] the test system is OVCAR-5 ovarian.
The test system of test [2] is COLO 205 colon.
Test [3] deals with MDA-MB-435.
Test [4] deals with NCI-H23 lung.
In test [5] the test system is KM12 colon.
Test [6] concerns UACC-257 melanoma.
The test system of test [7] is RPMI-8226 leukemia.
In test [8] the test system is HT29 colon.
Test [9] relates to CCRF-CEM leukemia.
Test [10] deals with SNB-19 CNS.

For `CC(=O)NC1C(OCc2ccccc2)OC(CO)C(O)C1OCC(=O)NC(C(=O)NC(CCC(=O)NCCCCCC(=O)Nc1ccc2c(c1)CN1C(=O)c3ccccc3C1=N2)C(N)=O)C(C)C` (stereo not given), the TGI was greater than 100 µM in [1]; greater than 100 µM in test [2]; greater than 100 µM in [3]; greater than 100 µM in [4]; 48.7 µM in test [5]; 66.7 µM in [6]. Also, the TGI was greater than 100 µM in test [7], greater than 100 µM in test [8], greater than 100 µM in test [9] and 47.7 µM in [10].

Turning to `CCOC(=O)N1c2ccccc2N(C(=O)OCC)C1CC(=O)/C=C/c1ccccc1`, the TGI in test [1] was 7.78 µM; in test [2], 4.17 µM; in [3], 8.11 µM; in [4], 8.7 µM; in test [5], 9.51 µM; in test [6] it was 21.9 µM. The TGI in [7] was found to be 26.6 µM; in test [8], 8.41 µM; in test [9] it was 4.61 µM; in test [10] it was 16.8 µM.
